In PubChem BioAssay (NCI):
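These data come from cells grown in 96-well plates and exposed to compound for 48 hours at five concentrations. Here, GI50 denotes the concentration required for 50% inhibition of growth. The concentration for full growth arrest is given as TGI.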

Test system: 786-0 renal
Test: NCI tumour cell line growth inhibition, 48 h

Compared with COc1ccc2c(c1)CCCN2CCCCCCCCCCN(CCC(C)C)CCC(C)C, CN(C)CCCn1cnc2cc(Cl)c(Cl)cc21 is higher in TGI: 27.5 µM for the first, > 100 µM for the second.

Compared with COc1ccc(-c2nc3ncccn3c2-c2ccc(SC)cc2)cc1, COc1ccc(C2=C3SC=c4ccccc4=C3ON=C2c2ccccc2)cc1 is higher in TGI: 46 µM for the first, > 100 µM for the second.

Compared with C[C@H]1C(=O)O[C@@H]2CCN3CC=C(COC(=O)[C@](C)(O)[C@@]1(C)O)[C@H]23, CC(=O)NNc1nc(-c2ccc([N+](=O)[O-])cc2)c(C#N)c(=O)n1C is lower in TGI: > 100 µM for the first, 47 µM for the second.

First: N=C1C(=N)c2ccccc2-c2ccccc21.N=C1C(=N)c2ccccc2-c2ccccc21.N=C1C(=N)c2ccccc2-c2ccccc21.[Cl-].[Ru+2]
Second: CCOC(=O)c1c2c(n(Cc3ccccc3)c1C)C(=O)C(=O)c1ccccc1-2
The TGI of the first is 19-fold higher: 28.5 µM for the first, 1.49 µM for the second.

O=C1NI(C#Cc2ccccc2)c2ccccc21 and Cc1cc2c(cc1C(=O)c1ccc(N)cc1)OCO2 cannot be ordered by TGI: > 100 µM for the first, > 100 µM for the second.

CCc1nc(N)nc(N)c1-c1ccc([N+](C)(C)C)cc1 and NCCc1cc(O)c(O)cc1O cannot be ordered by TGI: > 100 µM for the first, > 69.1 µM for the second.

Test system: CAKI-1 renal
Test: NCI tumour cell line growth inhibition, 48 h

Compared with O=C(Nc1ccc([N+](=O)[O-])cc1[N+](=O)[O-])C(=O)C(C(=O)c1ccc2ccccc2c1)C1OC(=O)c2ccccc21 (stereo not drawn), COc1ccc(C2=C3SC=c4ccccc4=C3ON=C2c2ccccc2)cc1 is higher in TGI: 54 µM for the first, > 100 µM for the second.

First: COc1ccc2c(c1)CCCN2CCCCCCCCCCN(CCC(C)C)CCC(C)C
Second: CN(C)CCCn1cnc2cc(Cl)c(Cl)cc21
The TGI of the first is lower: 28.9 µM for the first, > 100 µM for the second.

Going from O=P1(c2ccccc2)Nc2ccccc2SSc2ccccc2N1 to O=C1NI(C#Cc2ccccc2)c2ccccc21, the TGI rises from 32.4 µM to > 100 µM.

Going from COc1ccc(-c2nc3ncccn3c2-c2ccc(SC)cc2)cc1 to CN(C)CCNC(=O)c1cccc2ccc(-c3ccc(F)cc3)nc12, the TGI rises from 4.96 µM to 15.3 µM (3.1-fold).

C[C@H]1C(=O)O[C@@H]2CCN3CC=C(COC(=O)[C@](C)(O)[C@@]1(C)O)[C@H]23 and CN(C)C(=O)/C=C/c1c[nH]c(=O)[nH]c1=O cannot be ordered by TGI: > 100 µM for the first, > 500 µM for the second.

Going from CCOC(=O)c1c2c(n(Cc3ccccc3)c1C)C(=O)C(=O)c1ccccc1-2 to NCCCn1c2c(c3ccc([N+](=O)[O-])cc3c1=O)C(=O)c1ccccc1-2, the TGI falls from 0.984 µM to 0.494 µM (2-fold).

CCc1nc(N)nc(N)c1-c1ccc([N+](C)(C)C)cc1 and CC(=O)NNc1nc(-c2ccc([N+](=O)[O-])cc2)c(C#N)c(=O)n1C cannot be ordered by TGI: > 100 µM for the first, > 100 µM for the second.

Cc1cc2c(cc1C(=O)c1ccc(N)cc1)OCO2 and NCCc1cc(O)c(O)cc1O are within 1.5-fold of each other in TGI: 66.4 µM for the first, 61.5 µM for the second.

Going from COc1cc(C2CC(c3cccc(Nc4ccncc4)c3)=NN2c2ccc(Cl)cc2)cc(OC)c1OC (stereo not drawn) to CCCOC(=O)CNC(=O)OC(C)(C)C, the TGI rises from 2.76 µM to > 100 µM.

Going from NCCCn1c2c(c3ccc([N+](=O)[O-])cc3c1=O)C(=O)c1ccccc1-2 to COc1cc(C2CC(c3cccc(Nc4ccncc4)c3)=NN2c2ccc(Cl)cc2)cc(OC)c1OC (stereo not drawn), the GI50 rises from 27.6 nM to 1410 nM (51-fold).

Test system: HCT-116 colon
Test: NCI tumour cell line growth inhibition, 48 h

Nc1n[nH]c(=O)c2c1c(I)cn2C1OC(CO)C(O)C1O (stereo not drawn) and C[C@H]1C(=O)O[C@@H]2CCN3CC=C(COC(=O)[C@](C)(O)[C@@]1(C)O)[C@H]23 cannot be ordered by TGI: > 100 µM for the first, > 100 µM for the second.

Going from O=C(Nc1ccc([N+](=O)[O-])cc1[N+](=O)[O-])C(=O)C(C(=O)c1ccc2ccccc2c1)C1OC(=O)c2ccccc21 (stereo not drawn) to COc1ccc(C2=C3SC=c4ccccc4=C3ON=C2c2ccccc2)cc1, the TGI rises from 32 µM to > 100 µM.

First: COc1cc(/C=C/C(=O)Oc2ccc(NC(C)=O)cc2)ccc1C(=O)O/C=C/c1ccccc1
Second: CCOC(=O)c1c2c(n(Cc3ccccc3)c1C)C(=O)C(=O)c1ccccc1-2
The TGI of the first is higher: > 100 µM for the first, 0.692 µM for the second.

First: O=P1(c2ccccc2)Nc2ccccc2SSc2ccccc2N1
Second: O=C1NI(C#Cc2ccccc2)c2ccccc21
The TGI of the first is lower: 31.4 µM for the first, > 100 µM for the second.

Compared with COc1ccc(-c2nc3ncccn3c2-c2ccc(SC)cc2)cc1, CN(C)CCNC(=O)c1cccc2ccc(-c3ccc(F)cc3)nc12 is 2.6-fold higher in TGI: 5.15 µM for the first, 13.3 µM for the second.

Going from N=C1C(=N)c2ccccc2-c2ccccc21.N=C1C(=N)c2ccccc2-c2ccccc21.N=C1C(=N)c2ccccc2-c2ccccc21.[Cl-].[Ru+2] to Cc1cc2c(cc1C(=O)c1ccc(N)cc1)OCO2, the TGI rises from 3.2 µM to > 100 µM.

First: CN(C)C(=O)/C=C/c1c[nH]c(=O)[nH]c1=O
Second: CC(=O)NNc1nc(-c2ccc([N+](=O)[O-])cc2)c(C#N)c(=O)n1C
The TGI of the first is higher: > 500 µM for the first, 94.2 µM for the second.

Going from CN(C)CCCn1cnc2cc(Cl)c(Cl)cc21 to NCCc1cc(O)c(O)cc1O, the TGI falls from > 100 µM to 53.3 µM.

CCc1nc(N)nc(N)c1-c1ccc([N+](C)(C)C)cc1 and CCCOC(=O)CNC(=O)OC(C)(C)C cannot be ordered by TGI: > 100 µM for the first, > 100 µM for the second.

NCCCn1c2c(c3ccc([N+](=O)[O-])cc3c1=O)C(=O)c1ccccc1-2 showed a GI50 of 20.5 nM.

Test system: HCT-15 colon
Test: NCI tumour cell line growth inhibition, 48 h

First: Nc1n[nH]c(=O)c2c1c(I)cn2C1OC(CO)C(O)C1O (stereo not drawn)
Second: C[C@H]1C(=O)O[C@@H]2CCN3CC=C(COC(=O)[C@](C)(O)[C@@]1(C)O)[C@H]23
The TGI of the first is lower: 3.05 µM for the first, > 100 µM for the second.

Compared with O=C(Nc1ccc([N+](=O)[O-])cc1[N+](=O)[O-])C(=O)C(C(=O)c1ccc2ccccc2c1)C1OC(=O)c2ccccc21 (stereo not drawn), COc1ccc(C2=C3SC=c4ccccc4=C3ON=C2c2ccccc2)cc1 is higher in TGI: 30.7 µM for the first, > 100 µM for the second.

Going from COc1cc(/C=C/C(=O)Oc2ccc(NC(C)=O)cc2)ccc1C(=O)O/C=C/c1ccccc1 to CCOC(=O)c1c2c(n(Cc3ccccc3)c1C)C(=O)C(=O)c1ccccc1-2, the TGI falls from > 100 µM to 2.58 µM.

First: COc1ccc2c(c1)CCCN2CCCCCCCCCCN(CCC(C)C)CCC(C)C
Second: CN(C)CCCn1cnc2cc(Cl)c(Cl)cc21
The TGI of the first is lower: 23.4 µM for the first, > 100 µM for the second.

Going from O=P1(c2ccccc2)Nc2ccccc2SSc2ccccc2N1 to O=C1NI(C#Cc2ccccc2)c2ccccc21, the TGI rises from 35.8 µM to > 100 µM.

First: COc1ccc(-c2nc3ncccn3c2-c2ccc(SC)cc2)cc1
Second: CN(C)CCNC(=O)c1cccc2ccc(-c3ccc(F)cc3)nc12
The TGI of the first is higher: > 100 µM for the first, 16.1 µM for the second.

CN(C)C(=O)/C=C/c1c[nH]c(=O)[nH]c1=O and CC(=O)NNc1nc(-c2ccc([N+](=O)[O-])cc2)c(C#N)c(=O)n1C cannot be ordered by TGI: > 500 µM for the first, > 100 µM for the second.

Going from NCCCn1c2c(c3ccc([N+](=O)[O-])cc3c1=O)C(=O)c1ccccc1-2 to Cc1cc2c(cc1C(=O)c1ccc(N)cc1)OCO2, the TGI rises from 0.81 µM to > 100 µM.

Going from CCc1nc(N)nc(N)c1-c1ccc([N+](C)(C)C)cc1 to COc1cc(C2CC(c3cccc(Nc4ccncc4)c3)=NN2c2ccc(Cl)cc2)cc(OC)c1OC (stereo not drawn), the TGI falls from > 100 µM to 3.28 µM.

Going from NCCc1cc(O)c(O)cc1O to CCCOC(=O)CNC(=O)OC(C)(C)C, the TGI rises from 44.5 µM to > 100 µM.

Going from NCCCn1c2c(c3ccc([N+](=O)[O-])cc3c1=O)C(=O)c1ccccc1-2 to COc1cc(C2CC(c3cccc(Nc4ccncc4)c3)=NN2c2ccc(Cl)cc2)cc(OC)c1OC (stereo not drawn), the GI50 rises from 29 nM to 1700 nM (59-fold).

Test system: MALME-3M melanoma
Test: NCI tumour cell line growth inhibition, 48 h

First: Nc1n[nH]c(=O)c2c1c(I)cn2C1OC(CO)C(O)C1O (stereo not drawn)
Second: NCCc1cc(O)c(O)cc1O
The TGI of the first is lower: 17.3 µM for the first, > 74.1 µM for the second.

COc1cc(/C=C/C(=O)Oc2ccc(NC(C)=O)cc2)ccc1C(=O)O/C=C/c1ccccc1 and COc1ccc(C2=C3SC=c4ccccc4=C3ON=C2c2ccccc2)cc1 cannot be ordered by TGI: > 100 µM for the first, > 100 µM for the second.

Compared with COc1ccc2c(c1)CCCN2CCCCCCCCCCN(CCC(C)C)CCC(C)C, CN(C)CCCn1cnc2cc(Cl)c(Cl)cc21 is higher in TGI: 28.1 µM for the first, > 100 µM for the second.

Going from O=P1(c2ccccc2)Nc2ccccc2SSc2ccccc2N1 to O=C1NI(C#Cc2ccccc2)c2ccccc21, the TGI rises from 36.9 µM to > 100 µM.

First: N=C1C(=N)c2ccccc2-c2ccccc21.N=C1C(=N)c2ccccc2-c2ccccc21.N=C1C(=N)c2ccccc2-c2ccccc21.[Cl-].[Ru+2]
Second: CCOC(=O)c1c2c(n(Cc3ccccc3)c1C)C(=O)C(=O)c1ccccc1-2
The TGI of the first is 17-fold higher: 3.29 µM for the first, 0.191 µM for the second.

Compared with CN(C)C(=O)/C=C/c1c[nH]c(=O)[nH]c1=O, CN(C)CCNC(=O)c1cccc2ccc(-c3ccc(F)cc3)nc12 is lower in TGI: > 500 µM for the first, 13.6 µM for the second.

Cc1cc2c(cc1C(=O)c1ccc(N)cc1)OCO2 and CC(=O)NNc1nc(-c2ccc([N+](=O)[O-])cc2)c(C#N)c(=O)n1C cannot be ordered by TGI: > 100 µM for the first, > 100 µM for the second.

Going from COc1cc(C2CC(c3cccc(Nc4ccncc4)c3)=NN2c2ccc(Cl)cc2)cc(OC)c1OC (stereo not drawn) to CCCOC(=O)CNC(=O)OC(C)(C)C, the TGI rises from 3.11 µM to > 100 µM.

N=C1C(=N)c2ccccc2-c2ccccc21.N=C1C(=N)c2ccccc2-c2ccccc21.N=C1C(=N)c2ccccc2-c2ccccc21.[Cl-].[Ru+2] and COc1cc(C2CC(c3cccc(Nc4ccncc4)c3)=NN2c2ccc(Cl)cc2)cc(OC)c1OC (stereo not drawn) are within 1.5-fold of each other in GI50: 1790 nM for the first, 1660 nM for the second.

Test system: MCF7 breast
Test: NCI tumour cell line growth inhibition, 48 h

Compared with COc1cc(/C=C/C(=O)Oc2ccc(NC(C)=O)cc2)ccc1C(=O)O/C=C/c1ccccc1, O=P1(c2ccccc2)Nc2ccccc2SSc2ccccc2N1 is lower in TGI: > 100 µM for the first, 37.5 µM for the second.
